Data set [1] can be described thus: Osmolality of aqueous solution at 300 mg I/ml. Type of data set: physicochemical. The settings on record: for OSMOLALITY mOsm/kg at 300 mg I/ml: 300 mg I/ml (Table II); for OSMOLALITY 37°C mOsm/kg at 300 mg I/ml: 300 mg I/ml (Table I).
The nature of data set [2]: Viscosity of aqueous solution at 300 mg I/ml. It is filed as physicochemical. The following applies: for VISCOSITY 37°C mPa.s 300 mg I/ml: 300 mg I/ml (Table I); for VISCOSITY mPas (37°C) at 300 mg I/ml: 300 mg I/ml (Table II).
The subject of data set [3] is RAT. The data set can be described thus: General toxicity, average lethal dose (DL50) in the rat, i.v. Type of data set: in vivo. As for the experimental part: (§1) On the other hand, radiologists need compounds with a wide range of uses: for example, angiography, urography, myelography, cisternography, lymphography, cardiography and gastrography. The products according to this invention fulfil the requirements for the above uses, as they have high water solubility, normally higher than 60% (w/v), which, in some cases, is as high as 100% at 20°C, without showing any tendency to crystallize. They also have a very low general toxicity, stated as the average lethal dose for the rat, DL₅₀.

Data set [4] can be described thus: physchem. It is filed as physicochemical. The settings on record: for solubility: water. How it is done:
as §1

Where [5] appears, read: 20°C (Table II), read-out: SOLUBILITY IN WATER at 20°.

The values below come from patent EP0647618A1, “NEW NON IONIC IODINE-CONTAINING DIMERS USEFUL AS X-RAY CONTRAST AGENTS, METHOD FOR THE PREPARATION THEREOF, AND GALENICAL COMPOSITIONS CONTAINING THEM” (CENTRO INVESTIGACION JUSTESA IMAGEN S.A., priority 1993, dated 1994).

Each structure is given as a SMILES string. Read-outs that look alike come from different tables or passages of the source.

With `O=C(CN(CCO)CC(=O)Nc1c(I)c(C(=O)NCC(O)CO)c(I)c(C(=O)NCC(O)CO)c1I)Nc1c(I)c(C(=O)NCC(O)CO)c(I)c(C(=O)NCC(O)CO)c1I` (stereo not shown) [ICJ-1192, N,N'-Bis-{3,5-bis-[N-(2,3-dihydroxypropyl)carbamoyl]-2,4,6-triiodophenyl}-3-(2-hydroxyethyl)-3-azapentanediamide], in data set [1], the “OSMOLALITY mOsm/kg at 300 mg I/ml” value worked out at 167 mOsm/kg and the “OSMOLALITY 37°C mOsm/kg at 300 mg I/ml” value was 167 mOsm/kg. In data set [2], the “VISCOSITY 37°C mPa.s 300 mg I/ml” value was found to be 9.4 mPa.s and the “VISCOSITY mPas (37°C) at 300 mg I/ml” value is 9.4 mPas. Moreover, the “DL50 (RAT) via i.v. g I/kg” value in data set [3] is recorded as greater than 25 g I/kg. The “SOLUBILITY IN WATER at 20°” value in data set [4] (20°C (Table II)) is reported as greater than 60%. In addition, the solubility in data set [4] (20°C (Table I), read-out: SOLUBILITY in water at 20°C (w/v)) was greater than 600 mg/mL.
As to `O=C(CN(CCO)CC(=O)Nc1c(I)c(C(=O)NC(CO)C(O)CO)c(I)c(C(=O)NC(CO)C(O)CO)c1I)Nc1c(I)c(C(=O)NCCO)c(I)c(C(=O)NCCO)c1I` (stereo not shown) [ICJ-1592], in data set [1], the “OSMOLALITY mOsm/kg at 300 mg I/ml” value is reported as 151 mOsm/kg and the “OSMOLALITY 37°C mOsm/kg at 300 mg I/ml” value is recorded as 151 mOsm/kg. Besides, in data set [2], the “VISCOSITY 37°C mPa.s 300 mg I/ml” value was 8.4 mPa.s and the “VISCOSITY mPas (37°C) at 300 mg I/ml” value was 8.4 mPas. Also, the “DL50 (RAT) via i.v. g I/kg” value in data set [3] was greater than 20 g I/kg. Also, in data set [4], the “SOLUBILITY IN WATER at 20°” value is greater than 60% and the solubility is greater than 600 mg/mL.
`CN(C(=O)CN(CCO)CC(=O)N(C)c1c(I)c(C(=O)NCC(O)CO)c(I)c(C(=O)NCC(O)CO)c1I)c1c(I)c(C(=O)NCC(O)CO)c(I)c(C(=O)NCC(O)CO)c1I` (stereo not shown) [ICJ-1692, N,N'-Bis-{3,5-bis-[N-(2,3-dihydroxypropyl)carbamoyl]-2,4,6-triiodophenyl}-N,N'-dimethyl-3-(2-hydroxethyl)-3-azapentanediamide]: in data set [1], the “OSMOLALITY mOsm/kg at 300 mg I/ml” value is recorded as 174 mOsm/kg and the “OSMOLALITY 37°C mOsm/kg at 300 mg I/ml” value is 174 mOsm/kg. In data set [2], the “VISCOSITY 37°C mPa.s 300 mg I/ml” value amounted to 9.3 mPa.s and the “VISCOSITY mPas (37°C) at 300 mg I/ml” value worked out at 9.3 mPas. For the same compound, the “DL50 (RAT) via i.v. g I/kg” value in data set [3] was greater than 20 g I/kg. Moreover, in data set [4], the “SOLUBILITY IN WATER at 20°” value was greater than 60% and the solubility was greater than 600 mg/mL.
With `CN(C(=O)CN(CCO)CC(=O)Nc1c(I)c(C(=O)NCC(O)CO)c(I)c(C(=O)NCC(O)CO)c1I)c1c(I)c(C(=O)NCC(O)CO)c(I)c(C(=O)NCC(O)CO)c1I` (stereo not shown) [ICJ-1792, N,N'-Bis-{3,5-bis-[N-(2,3-dihydroxypropyl)carbamoyl]-2,4,6-triiodophenyl}-N-methyl-3-(2-hydroxyethyl)-3-azapentanediamide], in data set [1], the “OSMOLALITY mOsm/kg at 300 mg I/ml” value is given as 157 mOsm/kg. Moreover, in data set [2], the “VISCOSITY mPas (37°C) at 300 mg I/ml” value is given as 10.6 mPas. Also, in data set [4] (setting [5]), the solubility was greater than 600 mg/mL.
For `CN(C(=O)CN(CCO)CC(=O)Nc1c(I)c(C(=O)NCCO)c(I)c(C(=O)NCCO)c1I)c1c(I)c(C(=O)NC(CO)C(O)CO)c(I)c(C(=O)NC(CO)C(O)CO)c1I` (stereo not shown) [ICJ-1892, N{3,5-Bis-[N-(1-hydroxymethyl-2,3-dihydroxypropyl)carbamoyl]-2,4,6-triiodophenyl}-N-methyl-N'-{3,5-bis-[N-(2-hydroxyethyl)carbamoyl]-2,4,6-triiodophenyl}-3-(2-hydroxyethyl)-3-azapentanediamide], in that order: 133 mOsm/kg, 9.7 mPas and greater than 600 mg/mL.
For `CN(C(=O)CN(CCO)CC(=O)Nc1c(I)c(C(=O)NC(CO)C(O)CO)c(I)c(C(=O)NC(CO)C(O)CO)c1I)c1c(I)c(C(=O)NCCO)c(I)c(C(=O)NCCO)c1I` (stereo not shown) [ICJ-1992, N-{3,5-Bis-[N-(1-hydroxymethyl-2,3-dihydroxypropyl)carbamoyl]-2,4,6-triiodophenyl}-N'-methyl-N'-{3,5-bis-[N-(2-hydroxyethyl)carbamoyl]-2,4,6-triiodophenyl}-3-(2-hydroxyethyl)-3-azapentanediamide], in that order: 164 mOsm/kg, 9.1 mPas and greater than 600 mg/mL.
On to `CN(C(=O)CN(CCO)CC(=O)N(C)c1c(I)c(C(=O)NC(CO)C(O)CO)c(I)c(C(=O)NC(CO)C(O)CO)c1I)c1c(I)c(C(=O)NCCO)c(I)c(C(=O)NCCO)c1I` (stereo not shown) [ICJ-2092, N-{3,5-Bis-[N-(1-hydroxymethyl-2,3-dihydroxypropyl)carbamoyl]-2,4,6-triiodophenyl}-N'-{3,5-bis-[N-(2-hydroxyethyl)carbamoyl]-2,4,6-triiodophenyl}-N,N'-dimethyl-3-(2-hydroxyethyl)-3-azapentanediamide], for which the “OSMOLALITY mOsm/kg at 300 mg I/ml” value in data set [1] was 188 mOsm/kg. In data set [2], the “VISCOSITY mPas (37°C) at 300 mg I/ml” value came out at 9.5 mPas. For the same compound, the solubility in data set [4] (setting [5]) is greater than 600 mg/mL.
For `CN(C(=O)CN(CCO)CC(=O)N(C)c1c(I)c(C(=O)NCC(O)CO)c(I)c(C(=O)NCC(O)CO)c1I)c1c(I)c(C(=O)NCCO)c(I)c(C(=O)NCCO)c1I` (stereo not shown) [ICJ-2292, N-{3,5-Bis-[N-(2,3-dihydroxypropyl)carbamoyl]-2,4,6-triiodophenyl}-N'-{3,5-bis-[N-(2-hydroxyethyl)carbamoyl]-2,4,6-triiodophenyl}-N,N'-dimethyl-3-(2-hydroxyethyl)-3-azapentanediamide], in that order: 162 mOsm/kg, 11.0 mPas and greater than 600 mg/mL.
For `O=C(CN(CC(=O)Nc1c(I)c(C(=O)NCCO)c(I)c(C(=O)NCCO)c1I)C(CO)C(O)CO)Nc1c(I)c(C(=O)NCCO)c(I)c(C(=O)NCCO)c1I` (stereo not shown) [ICJ-2592, N,N'-Bis-{3,5-bis-[N-(2-hydroxyethyl)carbamoyl]-2,4,6-triiodophenyl}-3-(1-hydroxymethyl-2,3-dihydroxypropyl)-3-azapentanediamide], in that order: 180 mOsm/kg, 9.1 mPas and greater than 600 mg/mL.
For `COCCN(CC(=O)Nc1c(I)c(C(=O)NCC(O)CO)c(I)c(C(=O)NCC(O)CO)c1I)CC(=O)Nc1c(I)c(C(=O)NCC(O)CO)c(I)c(C(=O)NCC(O)CO)c1I` (stereo not shown) [ICJ-2692, N,N'-Bis-{3,5-bis-[N-(2,3-dihydroxypropyl)carbamoyl]-2,4,6-triiodophenyl}-3-(2-methoxyethyl)-3-azapentanediamide], in that order: 185 mOsm/kg, 9.7 mPas and greater than 600 mg/mL.
Turning to `COCCN(CC(=O)N(C)c1c(I)c(C(=O)NCC(O)CO)c(I)c(C(=O)NCC(O)CO)c1I)CC(=O)N(C)c1c(I)c(C(=O)NCC(O)CO)c(I)c(C(=O)NCC(O)CO)c1I` (stereo not shown) [ICJ-2892, N,N'-Bis-{3,5-bis-[N-(2,3-dihydroxypropyl)carbamoyl]-2,4,6-triiodophenyl}-N,N'-dimethyl-3-(2-methoxymethyl)-3-azapentanediamide], the “OSMOLALITY mOsm/kg at 300 mg I/ml” value in data set [1] stood at 200 mOsm/kg. The “VISCOSITY mPas (37°C) at 300 mg I/ml” value in data set [2] was 10.8 mPas. The solubility in data set [4] (setting [5]) was greater than 600 mg/mL.
For `CC(=O)N(CC(O)CN(C(C)=O)c1c(I)c(C(=O)NCC(O)CO)c(I)c(C(=O)NCC(O)CO)c1I)c1c(I)c(C(=O)NCC(O)CO)c(I)c(C(=O)NCC(O)CO)c1I` (stereo not shown) [IODIXANOL, Iodixanol, reference compound], the “OSMOLALITY 37°C mOsm/kg at 300 mg I/ml” value in data set [1] worked out at 190 mOsm/kg. In addition, in data set [2], the “VISCOSITY 37°C mPa.s 300 mg I/ml” value is 8.7 mPa.s. Further, the “DL50 (RAT) via i.v. g I/kg” value in data set [3] is greater than 20 g I/kg. In data set [4], this compound returned a solubility greater than 600 mg/mL.
